Measurements as given in patent US12448371B2, “Inhibitor compounds” (Cincera Therapeutics Pty Ltd, priority 2019, dated 2025).
Structures can show the parent of a compound that is named as a salt.

Molecular target: T1, Des1 (h) (Homo sapiens, UniProt O15121)
T1 construct: endogenous in cells; host or cells: parental Jurkat cells
T1 sequence (O15121 1-323): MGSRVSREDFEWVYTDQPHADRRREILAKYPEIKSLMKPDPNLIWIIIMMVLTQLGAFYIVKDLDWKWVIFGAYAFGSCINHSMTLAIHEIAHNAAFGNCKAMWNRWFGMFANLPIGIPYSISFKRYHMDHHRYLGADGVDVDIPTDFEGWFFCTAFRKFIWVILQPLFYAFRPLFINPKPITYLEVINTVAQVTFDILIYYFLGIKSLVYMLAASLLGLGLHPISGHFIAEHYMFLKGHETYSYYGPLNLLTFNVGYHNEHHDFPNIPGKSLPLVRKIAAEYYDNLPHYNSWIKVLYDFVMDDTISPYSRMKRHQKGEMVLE
Test: Measurement of Dihydroceramide Desaturase-1 (Des-1) activity in intact Jurkat cells labeled with DhCer-C6-NBD (HPLC)
Type: cell-based
Details: for IC50: intact Jurkat cells, given as concentration range, or <X / >X if measured at one concentration X only, read-out: Des1 (h) Jurkat IC50
Experimental: Measurement of Dihydroceramide Desaturase-1 (Des-1) Activity
Compounds were assessed for Des-1 inhibitory activity. Measurement of Des1 activity was performed by HPLC using intact Jurkat cells labeled with DhCer-C6-NBD as described previously (Munoz-Olaya, J. M. et al. ChemMedChem 2008, 3, 946-953) with modifications to enhance sensitivity and reproducibility. These modifications included the use of parental Jurkat cells, 0.5% serum in the culture media, and cell harvesting via centrifugation at 500×g to maximise ceramide extraction. Extracted samples (50 ul) were analysed on a Waters HPLC coupled to a fluorescence detector using a 30 cm C18 reverse-phase column eluted with 1 ml/min 20% H2O and 80% acetonitrile, both with a 0.1% of trifluoroacetic acid. NBD-labelled substrate and product were quantitated with an excitation and emission wavelengths of 465 nm and 530 nm, respectively.

Compound: N/C(=N/O)c1ccc(Nc2ncc(-c3ccc(N4CC(F)(F)C4)cc3)o2)cn1 [Example 64, 5-((5-(4-(3,3-Difluoroazetidin-1-yl)phenyl)oxazol-2-yl)amino)-N′-hydroxypicolinimidamide]
- inhibition at 1 µM (Jurkat cells): 23%
- IC50: > 1000 nM

Compound: O=C(NC[C@@H](O)CO)c1ccc(Nc2ncc(-c3ccc(C(F)(F)F)cc3)o2)cn1 [Example 36, (R)—N-(2,3-Dihydroxypropyl)-5-((5-(4-(trifluoromethyl)phenyl)oxazol-2-yl)amino)picolinamide]
- IC50: 1 to 10 nM

Compound: Cn1nc(-c2ccc(C(F)(F)F)cc2)cc1Nc1ccc(/C(N)=N\O)nc1 [Example 77, N′-Hydroxy-5-((1-methyl-3-(4-(trifluoromethyl)phenyl)-1H-pyrazol-5-yl)amino)picolinimidamide]
- inhibition at 1 µM (Jurkat cells): 47%
- IC50: > 1000 nM

Compound: O=C(NO)c1ncc(Nc2ncc(-c3ccc(C(F)(F)F)cc3)o2)cn1 [Example 10]
- IC50: 1000 to 10000 nM

Compound: N/C(=N\O)c1ccc(Nc2ncc(-c3ccc(C(F)(F)F)nn3)o2)cn1 [Compound 119, N′-Hydroxy-5-((5-(6-(trifluoromethyl)pyridazin-3-yl)oxazol-2-yl)amino)picolinimidamide]
- inhibition at 1 µM (Jurkat cells): 44%
- IC50: > 1000 nM

Compound: O=C(NC[C@@H](O)CO)c1ccc(Nc2ncc(-c3ccc(F)cc3)o2)cn1 [Compound 98, (R)—N-(2,3-dihydroxypropyl)-5-((5-(4-fluorophenyl)oxazol-2-yl)amino)picolinamide]
- % inhibition of Des1 at 0.1 μM (Jurkat cells, 0.1 μM): 70%

Compound: N/C(=N\O)c1cnc(Nc2ncc(-c3ccc(C(F)(F)F)cc3)o2)nc1 [Example 63, N′-Hydroxy-2-((5-(4-(trifluoromethyl)phenyl)oxazol-2-yl)amino)pyrimidine-5-carboximidamide]
- inhibition at 1 µM (Jurkat cells): 23%
- IC50: > 1000 nM

Compound: N/C(=N/O)c1ccc(Nc2nnc(-c3ccc(Cl)cn3)o2)cn1 [Example 71, 5-((5-(5-Chloropyridin-2-yl)-1,3,4-oxadiazol-2-yl)amino)-N′-hydroxypicolinimidamide]
- inhibition at 1 µM (Jurkat cells): 13%
- IC50: > 1000 nM

Compound: N/C(=N/O)c1ccc(Nc2ncc(-c3ccc(F)cn3)o2)cn1 [Compound 117, 5-((5-(5-Fluoropyridin-2-yl)oxazol-2-yl)amino)-N′-hydroxypicolinimidamide]
- inhibition at 1 µM (Jurkat cells): 36%
- IC50: > 1000 nM

Compound: N/C(=N\O)c1ccc(Nc2ncc(-c3ccc(Cl)cc3)o2)cn1 [Compound 100, 5-((5-(4-Chlorophenyl)oxazol-2-yl)amino)-N′-hydroxypicolinimidamide]
- IC50: < 1000 nM

Compound: O=CNNC(=O)c1ccc(Nc2ncc(-c3ccc(C(F)(F)F)cc3)o2)cn1 [Compound 93, N′-formyl-5-((5-(4-(trifluoromethyl)phenyl)oxazol-2-yl)amino)picolinohydrazide]
- IC50: < 1000 nM

Compound: Cc1cc(Nc2ncc(-c3ccc(C(F)(F)F)cc3)o2)cc(=O)n1O [Example 27, 1-Hydroxy-6-methyl-4-((5-(4-(trifluoromethyl)phenyl)oxazol-2-yl)amino)pyridin-2(1H)-one]
- IC50: 0.1 to 1 nM

Compound: O=C(NO)c1ccc(Nc2ncc(-c3ccc(C(F)(F)F)cc3)o2)cn1 [Example 2, N-Hydroxy-5-((5-(4-(trifluoromethyl)phenyl)oxazol-2-yl)amino)picolinamide]
- IC50: 100 to 1000 nM

Compound: CN(O)C(=O)Nc1ccc(Nc2ncc(-c3ccc(C(F)(F)F)cc3)o2)cn1 [Example 35, 1-Hydroxy-1-methyl-3-(5-((5-(4-(trifluoromethyl)phenyl)oxazol-2-yl)amino)pyridin-2-yl)urea]
- IC50: 10 to 100 nM

Compound: Cl.N=C(NO)c1ccc(Nc2nnc(-c3ccc(C(F)(F)F)cn3)o2)cn1 [Example 69, N′-Hydroxy-5-((5-(5-(trifluoromethyl)pyridin-2-yl)-1,3,4-oxadiazol-2-yl)amino)picolinimidamide]
- % inhibition of Des1 at 1 μM (Jurkat cells): no inhibition
- IC50: > 1000 nM

Compound: N=C(NO)c1cc(Nc2ncc(-c3ccc(C(F)(F)F)cc3)o2)ncc1O [Example 50, N,5-Dihydroxy-2-((5-(4-(trifluoromethyl)phenyl)oxazol-2-yl)amino)isonicotinimid-amide]
- IC50: < 1000 nM

Compound: N/C(=N\O)c1ccc(Nc2ncc(-c3ccc(C(F)(F)F)cc3)o2)nc1 [Example 3, N′-Hydroxy-6-((5-(4-(trifluoromethyl)phenyl)oxazol-2-yl)amino)nicotinimidamide hydrochloride]
- IC50: 100 to 1000 nM

Compound: O=c1cc(Nc2ncc(-c3ccc(C(F)(F)F)cn3)o2)ccn1O [Example 68, 1-Hydroxy-4-((5-(5-(trifluoromethyl)pyridin-2-yl)oxazol-2-yl)amino)pyridin-2(1H)-one]
- IC50: < 1000 nM

Compound: O=C(NC[C@H](O)CO)c1ccc(Nc2ncc(-c3ccc(C(F)(F)F)cc3)o2)cn1 [Example 37, (S)—N-(2,3-Dihydroxypropyl)-5-((5-(4-(trifluoromethyl)phenyl)oxazol-2-yl)amino)picolinamide]
- % inhibition of Des1 at 1 μM (Jurkat cells): no inhibition
- IC50: > 1000 nM

Compound: N/C(=N\O)c1ccc(Nc2ncc(-c3ccc(C(F)(F)F)nc3)o2)cn1 [Example 59, N′-Hydroxy-5-((5-(6-(trifluoromethyl)pyridin-3-yl)oxazol-2-yl)amino)picolinimidamide]
- IC50: < 1000 nM

Compound: N/C(=N\O)c1ccc(Nc2nc(-c3ccc(OC(F)(F)F)cn3)no2)cn1 [Example 88, N′-hydroxy-5-((3-(5-(trifluoromethoxy)pyridin-2-yl)-1,2,4-oxadiazol-5-yl)amino)picolinimidamide]
- inhibition at 1 µM (Jurkat cells): 29%
- IC50: > 1000 nM

Compound: O=C(NC[C@@H](O)CO)c1ccc(Nc2ncc(-c3ccc(C(F)(F)F)cn3)o2)cn1 [Compound 95, (R)—N-(2,3-dihydroxypropyl)-5-((5-(5-(trifluoromethyl)pyridin-2-yl)oxazol-2-yl)amino)picolinamide]
- IC50: 10 to 100 nM

Compound: N/C(=N/O)c1ccc(Nc2ncc(-c3cnc(C(F)(F)F)cn3)o2)cn1 [Example 66, N′-Hydroxy-5-((5-(5-(trifluoromethyl)pyrazin-2-yl)oxazol-2-yl)amino)picolinimidamide]
- inhibition at 1 µM (Jurkat cells): 47%
- IC50: > 1000 nM

Compound: ONc1ccc(Nc2ncc(-c3ccc(C(F)(F)F)cc3)o2)cn1 [Example 4, N-(6-(Hydroxyamino)pyridin-3-yl)-5-(4-(trifluoromethyl)phenyl)oxazol-2-amine]
- IC50: 1000 to 10000 nM

Compound: N=C(NCC(O)CO)c1ccc(Nc2ncc(-c3ccc(C(F)(F)F)cc3)o2)cn1 (racemic) [Compound 91, rac-N-(2,3-dihydroxypropyl)-5-((5-(4-(trifluoromethyl)phenyl)oxazol-2-yl)amino)picolinimidamide]
- inhibition at 1 µM (Jurkat cells): 44%
- IC50: > 1000 nM

Compound: O=C(NO)c1ccc(Nc2ncc(-c3ccc(Cl)cc3)o2)cn1 [Example 1, 5-((5-(4-Chlorophenyl)oxazol-2-yl)amino)-N-hydroxypicolinamide]
- IC50: 100 to 1000 nM

Compound: Cc1nc(Nc2ccc(C(=O)NC[C@@H](O)CO)nc2)oc1-c1ccc(C(F)(F)F)cc1 [Compound 96, (R)—N-(2,3-dihydroxypropyl)-5-((4-methyl-5-(4-(trifluoromethyl)phenyl)oxazol-2-yl)amino)picolinamide]
- IC50: < 1000 nM

Compound: N/C(=N\O)c1ncc(Nc2ncc(-c3ccc(C(F)(F)F)cc3)o2)cc1O [Example 26, N′,3-Dihydroxy-5-((5-(4-(trifluoromethyl)phenyl)oxazol-2-yl)amino)picolinimidamide]
- IC50: 1 to 10 nM
